Test results published in patent US20220169629A1, “PESTICIDALLY ACTIVE DIAZINE-AMIDE COMPOUNDS” (SYNGENTA CROP PROTECTION AG, priority 2019, published 2022).

Tests used:
Type in all cases: in vivo
[1] = system: Diabrotica balteata (corn root worm); experiment: Example B1: Diabrotica balteata (corn root worm), sprayed maize sprouts, L2 larvae; conditions: 96 h, application rate of 200 ppm, 4 days after infestation, L2 larvae on maize sprouts, read-out: control in at least one of the two categories (mortality or growth inhibition)
Method: Example B1: Diabrotica Balteata (Corn Root Worm)
Maize sprouts placed onto an agar layer in 24-well microtiter plates were treated with aqueous test solutions prepared from 10′000 ppm DMSO stock solutions by spraying. After drying, the plates were infested with L2 larvae (6 to 10 per well). The samples were assessed for mortality and growth inhibition in comparison to untreated samples 4 days after infestation.

[2] = system: Euschistus heros (neotropical brown stink bug); experiment: Example B2: Euschistus heros (neotropical brown stink bug), sprayed soybean leaves, N2 nymphs; conditions: 120 h, application rate of 200 ppm, 5 days after infestation, N2 nymphs on soybean leaves, read-out: control in at least one of the two categories (mortality or growth inhibition)
Method: Example B2: Euschistus heros (Neotropical Brown Stink Bug)
Soybean leaves on agar in 24-well microtiter plates were sprayed with aqueous test solutions prepared from 10′000 ppm DMSO stock solutions. After drying the leaves were infested with N2 nymphs. The samples were assessed for mortality and growth inhibition in comparison to untreated samples 5 days after infestation.

[3] = system: Chilo suppressalis (striped rice stemborer); experiment: Example B4: Chilo suppressalis (striped rice stemborer), artificial diet, L2 larvae; conditions: 144 h, application rate of 200 ppm, 6 days after infestation, L2 larvae on artificial diet, read-out: control in at least one of the three categories (mortality, anti-feeding or growth inhibition)
Method: Example B4: Chilo suppressalis (Striped rice stemborer)
24-well microtiter plates with artificial diet were treated with aqueous test solutions prepared from 10′000 ppm DMSO stock solutions by pipetting. After drying, the plates were infested with L2 larvae (6-8 per well). The samples were assessed for mortality, anti-feeding effect, and growth inhibition in comparison to untreated samples 6 days after infestation. Control of Chilo suppressalis by a test sample is given when at least one of the categories mortality, anti-feedant effect, and growth inhibition is higher than the untreated sample.

[4] = system: Plutella xylostella (diamond back moth); experiment: Example B5: Plutella xylostella (diamond back moth), artificial diet, 24-well, eggs; conditions: 192 h, application rate of 200 ppm, 8 days after infestation, read-out: control in at least one of the two categories (mortality or growth inhibition)
Method: Example B5: Plutella xylostella (Diamond Back Moth)
24-well microtiter plates with artificial diet were treated with aqueous test solutions prepared from 10′000 ppm DMSO stock solutions by pipetting. After drying, Plutella eggs were pipetted through a plastic stencil onto a gel blotting paper and the plate was closed with it. The samples were assessed for mortality and growth inhibition in comparison to untreated samples 8 days after infestation.

[5] = system: Myzus persicae (green peach aphid); experiment: Example B6: Myzus persicae (green peach aphid), intrinsic activity; conditions: 120 h, test rate of 12 ppm, 5 days after infestation, sucrose solution, infested pea seedlings
Text: Example B6: Myzus persicae (Green Peach Aphid): Intrinsic Activity
Test compounds prepared from 10′000 ppm DMSO stock solutions were applied by pipette into 24-well microtiter plates and mixed with sucrose solution. The plates were closed with a stretched Parafilm. A plastic stencil with 24 holes was placed onto the plate and infested pea seedlings were placed directly on the Parafilm. The infested plate was closed with a gel blotting paper and another plastic stencil and then turned upside down. The samples were assessed for mortality 5 days after infestation.

[6] = system: Spodoptera littoralis (Egyptian cotton leaf worm); experiment: Example B7: Spodoptera littoralis (Egyptian cotton leaf worm), sprayed cotton leaf discs, L1 larvae; conditions: foliar, 72 h, application rate of 200 ppm, 3 days after infestation, L1 larvae on cotton leaf discs, read-out: control in at least one of the three categories (mortality, anti-feeding or growth inhibition)
Method: Example B7: Spodoptera littoralis (Egyptian Cotton Leaf Worm)
Cotton leaf discs were placed onto agar in 24-well microtiter plates and sprayed with aqueous test solutions prepared from 10′000 ppm DMSO stock solutions. After drying the leaf discs were infested with five L1 larvae. The samples were assessed for mortality, anti-feeding effect, and growth inhibition in comparison to untreated samples 3 days after infestation. Control of Spodoptera littoralis by a test sample is given when at least one of the categories mortality, anti-feedant effect, and growth inhibition is higher than the untreated sample.

[7] = system: Spodoptera littoralis (Egyptian cotton leaf worm); experiment: Example B8: Spodoptera littoralis (Egyptian cotton leaf worm), uptake by lettuce roots from agar; conditions: 144 h, test rate of 12.5 ppm, 6 days after infestation, compound absorbed by lettuce roots, read-out: control in at least one of the three categories (mortality, anti-feeding, or growth inhibition)
Text: Example B8: Spodoptera littoralis (Egyptian Cotton Leaf Worm)
Test compounds were applied by pipette from 10′000 ppm DMSO stock solutions into 24-well plates and mixed with agar. Lettuce seeds were placed onto the agar and the multi well plate was closed by another plate which contained also agar. After 7 days the compound was absorbed by the roots and the lettuce grew into the lid plate. The lettuce leaves were then cut off into the lid plate. Spodoptera eggs were pipetted through a plastic stencil onto a humid gel blotting paper and the lid plate was closed with it. The samples were assessed for mortality, anti-feedant effect and growth inhibition in comparison to untreated samples 6 days after infestation.

[8] = system: Myzus persicae (green peach aphid); experiment: Example B9: Myzus persicae (green peach aphid), 96-well sucrose solution; conditions: 120 h, application rate of 50 ppm, 5 days after infestation
Text: Example B9: Myzus persicae (Green Peach Aphid)
Test compounds prepared from 10′000 ppm DMSO stock solutions were applied by a liquid handling robot into 96-well microtiter plates and mixed with a sucrose solution. Parafilm was stretched over the 96-well microtiter plate and a plastic stencil with 96 holes was placed onto the plate. Aphids were sieved into the wells directly onto the Parafilm. The infested plates were closed with a gel blotting card and a second plastic stencil and then turned upside down. The samples were assessed for mortality 5 days after infestation.

[9] = system: Plutella xylostella (diamondback moth); experiment: Example B10: Plutella xylostella (diamondback moth), 96-well artificial diet; conditions: 216 h, application rate of 500 ppm, 9 days after infestation, eggs/L1 larvae
Method: Example B10: Plutella xylostella (Diamondback Moth)
96-well microtiter plates containing artificial diet were treated with aqueous test solutions, prepared from 10′000 ppm DMSO stock solutions, by a liquid handling robot. After drying, eggs (˜30 per well) were infested onto a netted lid which was suspended above the diet. The eggs hatch and L1 larvae move down to the diet. The samples were assessed for mortality 9 days after infestation.

[10] = system: Bemisia tabaci (cotton white fly); experiment: Example B3: Bemisia tabaci (cotton white fly), feeding/contact activity; conditions: foliar, 144 h, application rate of 200 ppm, 6 days after incubation, adult white flies on cotton leaf discs
Method: Example B3: Bemisia tabaci (Cotton White Fly): Feeding/Contact Activity
Cotton leaf discs were placed on agar in 24-well microtiter plates and sprayed with aqueous test solutions prepared from 10′000 ppm DMSO stock solutions. After drying the leaf discs were infested with adult white flies. The samples were checked for mortality 6 days after incubation.

CC(NC(=O)c1cc(OC(F)F)cc(C(F)(F)F)c1)c1nccnc1-c1ncc(OCC(F)(F)F)cn1 (stereo not drawn) [Compound P3, 3-(difluoromethoxy)-N-[1-[3-[5-(2,2,2-trifluoroethoxy)pyrimidin-2-yl]pyrazin-2-yl]ethyl]-5-(trifluoromethyl)benzamide]
≥ 80%: percent control (mortality or growth inhibition) at 200 ppm [1] | percent control (mortality or growth inhibition) at 200 ppm [2] | control at 200 ppm [3] | percent control (mortality or growth inhibition) at 200 ppm [4] | mortality at 12 ppm [5] | percent control (mortality, anti-feeding or growth inhibition) at 200 ppm [6]

CC(NC(=O)c1cc(Br)cc(C(F)(F)F)c1)c1nccnc1-c1ncc(OC(F)F)cn1 (stereo not drawn) [Compound P23, 3-bromo-N-[1-[3-[5-(difluoromethoxy)pyrimidin-2-yl]pyrazin-2-yl]ethyl]-5-(trifluoromethyl)benzamide]
≥ 80%: percent control (mortality or growth inhibition) at 200 ppm [1] | control at 200 ppm [3] | percent control (mortality or growth inhibition) at 200 ppm [4] | mortality at 12 ppm [5] | percent control (mortality, anti-feeding or growth inhibition) at 200 ppm [6] | percent control (mortality, anti-feeding or growth inhibition) at 12.5 ppm [7] | mortality at 50 ppm [8] | mortality at 500 ppm [9]

C[C@H](NC(=O)c1cc(C(F)(F)F)cc(C(F)(F)F)c1)c1nccnc1-c1ccc(OC(F)F)cn1 [Compound P24, N-[(1S)-1-[3-[5-(difluoromethoxy)-2-pyridyl]pyrazin-2-yl]ethyl]-3,5-bis(trifluoromethyl)benzamide]
≥ 80%: percent control (mortality or growth inhibition) at 200 ppm [1] | percent control (mortality or growth inhibition) at 200 ppm [2] | control at 200 ppm [3] | percent control (mortality or growth inhibition) at 200 ppm [4] | percent control (mortality, anti-feeding or growth inhibition) at 200 ppm [6] | percent control (mortality, anti-feeding or growth inhibition) at 12.5 ppm [7] | mortality at 500 ppm [9]

CC(NC(=O)c1cc(OC(F)F)cc(C(F)(F)F)c1)c1nccnc1-c1ncc(OC(F)F)cn1 (stereo not drawn) [Compound P26, 3-(difluoromethoxy)-N-[1-[3-[5-(difluoromethoxy)pyrimidin-2-yl]pyrazin-2-yl]ethyl]-5-(trifluoromethyl)benzamide]
≥ 80%: percent control (mortality or growth inhibition) at 200 ppm [1] | control at 200 ppm [3] | percent control (mortality or growth inhibition) at 200 ppm [4] | mortality at 12 ppm [5] | percent control (mortality, anti-feeding or growth inhibition) at 200 ppm [6] | mortality at 50 ppm [8] | mortality at 500 ppm [9]

CC(NC(=O)c1cc(OCC(F)F)cc(C(F)(F)F)c1)c1nccnc1-c1ncc(OC(F)F)cn1 (stereo not drawn) [Compound P27, 3-(2,2-difluoroethoxy)-N-[1-[3-[5-(difluoromethoxy)pyrimidin-2-yl]pyrazin-2-yl]ethyl]-5-(trifluoromethyl)benzamide]
≥ 80%: control at 200 ppm [3] | percent control (mortality or growth inhibition) at 200 ppm [4] | mortality at 12 ppm [5] | percent control (mortality, anti-feeding or growth inhibition) at 200 ppm [6] | mortality at 500 ppm [9]

CC(NC(=O)c1cc(OC(F)F)cc(C(F)(F)F)c1)c1nccnc1-c1ncc(OCC(F)F)cn1 (stereo not drawn) [Compound P28, N-[1-[3-[5-(2,2-difluoroethoxy)pyrimidin-2-yl]pyrazin-2-yl]ethyl]-3-(difluoromethoxy)-5-(trifluoromethyl)benzamide]
≥ 80%: percent control (mortality or growth inhibition) at 200 ppm [1] | percent control (mortality or growth inhibition) at 200 ppm [2] | control at 200 ppm [3] | percent control (mortality or growth inhibition) at 200 ppm [4] | mortality at 12 ppm [5] | percent control (mortality, anti-feeding or growth inhibition) at 200 ppm [6] | mortality at 50 ppm [8] | mortality at 500 ppm [9]

CC(NC(=O)c1cc(C(F)(F)F)cc(C(F)(F)F)c1)c1nccnc1-c1ncc(OCC(F)F)cn1 (stereo not drawn) [Compound P33, N-[1-[3-[5-(2,2-difluoroethoxy)pyrimidin-2-yl]pyrazin-2-yl]ethyl]-3,5-bis(trifluoromethyl)benzamide]
≥ 80%: percent control (mortality or growth inhibition) at 200 ppm [1] | percent control (mortality or growth inhibition) at 200 ppm [2] | control at 200 ppm [3] | percent control (mortality or growth inhibition) at 200 ppm [4] | percent control (mortality, anti-feeding or growth inhibition) at 200 ppm [6]

C[C@H](NC(=O)c1cc(C(F)(F)F)cc(C(F)(F)F)c1)c1nccnc1-c1ccc(C#N)cn1 [Compound P34, N-[(1S)-1-[3-(5-cyano-2-pyridyl)pyrazin-2-yl]ethyl]-3,5-bis(trifluoromethyl)benzamide]
≥ 80%: percent control (mortality or growth inhibition) at 200 ppm [1] | control at 200 ppm [3] | percent control (mortality or growth inhibition) at 200 ppm [4] | percent control (mortality, anti-feeding or growth inhibition) at 200 ppm [6] | percent control (mortality, anti-feeding or growth inhibition) at 12.5 ppm [7] | mortality at 500 ppm [9]

CC(NC(=O)c1cc(Br)cc(C(F)(F)F)c1)c1nccnc1-c1ncc(OCC(F)F)cn1 (stereo not drawn) [Compound P35, 3-bromo-N-[1-[3-[5-(2,2-difluoroethoxy)pyrimidin-2-yl]pyrazin-2-yl]ethyl]-5-(trifluoromethyl)benzamide]
≥ 80%: percent control (mortality or growth inhibition) at 200 ppm [1] | percent control (mortality or growth inhibition) at 200 ppm [2] | mortality at 200 ppm [10] | control at 200 ppm [3] | percent control (mortality or growth inhibition) at 200 ppm [4] | mortality at 12 ppm [5] | percent control (mortality, anti-feeding or growth inhibition) at 200 ppm [6] | percent control (mortality, anti-feeding or growth inhibition) at 12.5 ppm [7]

CC(NC(=O)c1cc(Cl)cc(C(F)(F)F)c1)c1nccnc1-c1ncc(OCC(F)(F)F)cn1 (stereo not drawn) [Compound P37, 3-chloro-N-[1-[3-[5-(2,2,2-trifluoroethoxy)pyrimidin-2-yl]pyrazin-2-yl]ethyl]-5-(trifluoromethyl)benzamide]
≥ 80%: percent control (mortality or growth inhibition) at 200 ppm [1] | percent control (mortality or growth inhibition) at 200 ppm [2] | control at 200 ppm [3] | percent control (mortality or growth inhibition) at 200 ppm [4] | percent control (mortality, anti-feeding or growth inhibition) at 200 ppm [6] | percent control (mortality, anti-feeding or growth inhibition) at 12.5 ppm [7]
